Assay results published in US20260250325A1, “Antiviral Polypeptide Membrane Fusion Inhibitor, and Preparation Method and Application Thereof” (priority 2025, published 2026).
Where a SMILES comes first, the peptide text is derived from it. The star is where a group is joined. Succinyl(4-O-cholesteryl) = CC(C)CCC[C@@H](C)[C@H]1CC[C@H]2[C@@H]3CC=C4C[C@@H](OC(=O)CCC(=O)*)CC[C@]4(C)[C@H]3CC[C@]12C

Test system: RSV A long virus strain
Assay type: cell-based
Conditions: RSV A long virus strain, HEp-2 cells, plaque reduction, 1 day; read-out: IC50
Procedure, shortened: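 Plaque reduction in HEp-2 cells: virus (100 PFU/well) and serially diluted compound (8 concentrations) mixed 1 h, adsorbed 2 h, then overlaid with 0.8% CMC medium plus compound for 1 day at 37 °C. Spots counted after anti-RSV immunostaining; IC50 from normalized inhibition, CC50 from viability data.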

Structure (SMILES) | IC50 [nM]
CC[C@H](C)[C@H](NC(=O)[C@H](CCCCN)NC(=O)[C@H](CCCCN)NC(=O)[C@H](CC(C)C)NC(=O)[C@H](CO)NC(=O)[C@H](CCC(=O)O)NC(=O)[C@H](CCC(=O)O)NC(=O)[C@@H](NC(=O)[C@H](CCCCN)NC(=O)[C@H](CCCCN)NC(=O)[C@H](CC(N)=O)NC(=O)[C@@H](NC(=O)[C@H](CCC(=O)O)NC(=O)[C@H](CCC(=O)O)NC(=O)[C@@H](NC(=O)[C@H](CCCCN)NC(=O)[C@H](CCCCN)NC(=O)[C@H](CC(=O)O)NC(=O)[C@H](Cc1ccccc1)NC(=O)[C@H](CCC(=O)O)NC(=O)[C@H](CC(=O)O)NC(=O)[C@H](Cc1c[nH]c2ccccc12)NC(C)=O)[C@@H](C)CC)C(C)C)[C@@H](C)CC)C(=O)N[C@@H](CCC(=O)O)C(=O)N[C@@H](CCC(=O)O)C(=O)N[C@@H](CO)C(=O)N[C@@H](CC(=O)O)C(=O)N[C@@H](CCCCN)C(=O)N[C@@H](CCCCN)C(=O)N[C@@H](CC(C)C)C(=O)N[C@@H](CCC(=O)O)C(=O)N[C@@H](CCC(=O)O)C(=O)N[C@H](C(=O)N[C@@H](CC(N)=O)C(=O)N[C@@H](CCC(=O)O)C(=O)N[C@@H](C)C(=O)N[C@@H](C)C(=O)N[C@@H](C)C(=O)N[C@@H](CCCCN)C(=O)N[C@@H](CCCCNC(=O)CCC(=O)O[C@H]1CC[C@@]2(C)C(=CC[C@H]3[C@@H]4CC[C@H]([C@H](C)CCCC(C)C)[C@@]4(C)CC[C@@H]32)C1)C(N)=O)C(C)C [Compound 41] (Ac-WDEFDKKIEEVNKKIEESLKKIEESDKKLEEVNEAAAKK(Succinyl(4-O-cholesteryl))-NH2) | 14.8
CC[C@H](C)[C@H](NC(=O)[C@H](CCCCN)NC(=O)[C@H](CCCCN)NC(=O)[C@H](CC(C)C)NC(=O)[C@H](CO)NC(=O)[C@H](CCC(=O)O)NC(=O)[C@H](CCC(=O)O)NC(=O)[C@@H](NC(=O)[C@H](CCCCN)NC(=O)[C@H](CCCCN)NC(=O)[C@H](CC(N)=O)NC(=O)[C@@H](NC(=O)[C@H](CCC(=O)O)NC(=O)[C@H](CCC(=O)O)NC(=O)[C@@H](NC(=O)[C@H](CCCCN)NC(=O)[C@H](CCCCN)NC(=O)[C@H](CCCCN)NC(=O)[C@H](CC(=O)O)NC(=O)[C@H](Cc1ccccc1)NC(=O)[C@H](CCC(=O)O)NC(=O)[C@H](CC(=O)O)NC(C)=O)[C@@H](C)CC)C(C)C)[C@@H](C)CC)C(=O)N[C@@H](CCC(=O)O)C(=O)N[C@@H](CCC(=O)O)C(=O)N[C@@H](CO)C(=O)N[C@@H](CC(=O)O)C(=O)N[C@@H](CCCCN)C(=O)N[C@@H](CCCCN)C(=O)N[C@@H](CC(C)C)C(=O)N[C@@H](CCC(=O)O)C(=O)N[C@@H](CCC(=O)O)C(=O)N[C@H](C(=O)NCC(=O)N[C@@H](CO)C(=O)NCC(=O)N[C@@H](CO)C(=O)NCC(=O)N[C@@H](CCCCNC(=O)CCC(=O)O[C@H]1CC[C@@]2(C)C(=CC[C@H]3[C@@H]4CC[C@H]([C@H](C)CCCC(C)C)[C@@]4(C)CC[C@@H]32)C1)C(N)=O)C(C)C [Compound 15] (Ac-DEFDKKKIEEVNKKIEESLKKIEESDKKLEEVGSGSGK(Succinyl(4-O-cholesteryl))-NH2) | 10.4
CC[C@H](C)[C@H](NC(=O)[C@H](CO)NC(=O)[C@H](C)NC(=O)[C@H](CC(=O)O)NC(=O)[C@H](Cc1ccccc1)NC(=O)[C@H](CCC(=O)O)NC(=O)[C@H](CC(=O)O)NC(=O)[C@H](Cc1c[nH]c2ccccc12)NC(C)=O)C(=O)N[C@@H](CO)C(=O)N[C@@H](CCC(N)=O)C(=O)N[C@H](C(=O)N[C@@H](CC(N)=O)C(=O)N[C@@H](CCC(=O)O)C(=O)N[C@@H](CCCCN)C(=O)N[C@H](C(=O)N[C@@H](CC(N)=O)C(=O)N[C@@H](CCC(N)=O)C(=O)N[C@@H](CO)C(=O)N[C@@H](CC(C)C)C(=O)N[C@@H](CCC(=O)O)C(=O)N[C@@H](CCC(=O)O)C(=O)N[C@H](C(=O)N[C@@H](CCCNC(=N)N)C(=O)N[C@@H](CCCCN)C(=O)N[C@@H](CO)C(=O)N[C@@H](CC(=O)O)C(=O)N[C@@H](CCC(=O)O)C(=O)N[C@@H](CC(C)C)C(=O)N[C@@H](CC(C)C)C(=O)N[C@@H](Cc1c[nH]cn1)C(=O)N[C@@H](CC(N)=O)C(=O)N[C@@H](CCC(=O)O)C(=O)N[C@@H](C)C(=O)N[C@@H](C)C(=O)N[C@@H](C)C(=O)N[C@@H](CCCCN)C(=O)N[C@@H](CCCCNC(=O)CCC(=O)O[C@H]1CC[C@@]2(C)C(=CC[C@H]3[C@@H]4CC[C@H]([C@H](C)CCCC(C)C)[C@@]4(C)CC[C@@H]32)C1)C(N)=O)[C@@H](C)CC)[C@@H](C)CC)C(C)C [Compound 45] (Ac-WDEFDASISQVNEKINQSLEEIRKSDELLHNEAAAKK(Succinyl(4-O-cholesteryl))-NH2) | 12.2
CC[C@H](C)[C@H](NC(=O)[C@H](CO)NC(=O)[C@H](C)NC(=O)[C@H](CC(=O)O)NC(=O)[C@H](Cc1ccccc1)NC(C)=O)C(=O)N[C@@H](CCC(=O)O)C(=O)N[C@@H](CCC(=O)O)C(=O)N[C@H](C(=O)N[C@@H](CC(N)=O)C(=O)N[C@@H](CCCNC(=N)N)C(=O)N[C@@H](CCCNC(=N)N)C(=O)N[C@H](C(=O)N[C@@H](CCC(=O)O)C(=O)N[C@@H](CCC(=O)O)C(=O)N[C@@H](CO)C(=O)N[C@@H](CC(C)C)C(=O)N[C@@H](CCCNC(=N)N)C(=O)N[C@@H](CCCNC(=N)N)C(=O)N[C@H](C(=O)N[C@@H](CCC(=O)O)C(=O)N[C@@H](CCC(=O)O)C(=O)N[C@@H](CO)C(=O)N[C@@H](CC(=O)O)C(=O)N[C@@H](CCCNC(=N)N)C(=O)N[C@@H](CCCNC(=N)N)C(=O)N[C@@H](CC(C)C)C(=O)N[C@@H](CCC(=O)O)C(=O)N[C@@H](CCC(=O)O)C(=O)N[C@H](C(=O)N[C@@H](CC(N)=O)C(=O)N[C@@H](C)C(=O)N[C@@H](CCC(=O)O)C(=O)N[C@@H](C)C(=O)N[C@@H](C)C(=O)N[C@@H](C)C(=O)N[C@@H](CCCCN)C(=O)N[C@@H](CCCCNC(=O)CCC(=O)O[C@H]1CC[C@@]2(C)C(=CC[C@H]3[C@@H]4CC[C@H]([C@H](C)CCCC(C)C)[C@@]4(C)CC[C@@H]32)C1)C(N)=O)C(C)C)[C@@H](C)CC)[C@@H](C)CC)C(C)C [Compound 42] (Ac-FDASIEEVNRRIEESLRRIEESDRRLEEVNAEAAAKK(Succinyl(4-O-cholesteryl))-NH2) | 11.8
CC[C@H](C)[C@H](NC(=O)[C@H](CCCCN)NC(=O)[C@H](CCC(=O)O)NC(=O)[C@H](CC(C)C)NC(=O)[C@H](CO)NC(=O)[C@H](CCC(N)=O)NC(=O)[C@H](CC(N)=O)NC(=O)[C@@H](NC(=O)[C@H](CCCCN)NC(=O)[C@H](CCC(=O)O)NC(=O)[C@H](CC(N)=O)NC(=O)[C@@H](NC(=O)[C@H](CCC(N)=O)NC(=O)[C@H](CO)NC(=O)[C@H](C)NC(=O)[C@H](CC(=O)O)NC(=O)[C@H](Cc1ccccc1)NC(=O)[C@@H](NC(=O)[C@H](CC(C)C)NC(=O)[C@H](CCC(=O)O)NC(=O)[C@H](CC(=O)O)NC(=O)[C@H](Cc1ccc(O)cc1)NC(C)=O)C(C)C)C(C)C)[C@@H](C)CC)C(=O)N[C@@H](CCCNC(=N)N)C(=O)N[C@@H](CCCCN)C(=O)N[C@@H](CO)C(=O)N[C@@H](CC(=O)O)C(=O)N[C@@H](CCC(=O)O)C(=O)N[C@@H](CC(C)C)C(=O)N[C@@H](CC(C)C)C(=O)N[C@@H](Cc1c[nH]cn1)C(=O)N[C@@H](CC(N)=O)C(=O)N[C@H](C(=O)N[C@@H](CCC(=O)O)C(=O)N[C@@H](C)C(=O)N[C@@H](C)C(=O)N[C@@H](C)C(=O)N[C@@H](CCCCN)C(=O)N[C@@H](CCCCNC(=O)CCC(=O)O[C@H]1CC[C@@]2(C)C(=CC[C@H]3[C@@H]4CC[C@H]([C@H](C)CCCC(C)C)[C@@]4(C)CC[C@@H]32)C1)C(N)=O)C(C)C [Compound 30] (Ac-YDELVFDASQVNEKINQSLEKIRKSDELLHNVEAAAKK(Succinyl(4-O-cholesteryl))-NH2) | 14.9
